{"source": "patent US20210283217A1", "about": "“NEUROMODULATING COMPOSITIONS AND RELATED THERAPEUTIC METHODS FOR THE TREATMENT OF INFLAMMATORY AND AUTOIMMUNE DISEASES” (Flagship Pioneering Innovations V, Inc., priority 2016, published 2021)", "key": {"[1]": {"tested_on": "primary human T cells", "experiment": "T cell activation and cytokine secretion assay (LEGENDplex)", "type": "cell-based", "protocol": "Peripheral blood mononuclear cells (PBMCs) were isolated from whole blood by ficoll density separation. Briefly, blood was diluted 1:2 with 0.5 mM EDTA solution in PBS, loaded onto a Ficoll-filled Leucosep tube (Greiner Bio-One), and centrifuged for 20 minutes at 1000×g. After centrifugation, the leukocyte/PBMC layer on top of the separation medium was collected and sequentially washed three times with 0.5 mM EDTA solution in PBS. T cells were isolated from PBMCs using magnetic bead-based separation following vendor specification, e.g., Biolegend MojoSort Human CD4/CD8 Naïve T Cell Isolation Kit protocol. In brief, the PBMCs were labeled with biotinylated antibodies against cell surface receptors for cells not in the population of interest. The labeled cells are then captured by streptavidin-coated magnetic beads and removed by magnetic incubation. The uncaptured cells that flow through the magnetic separation are predominantly comprised of the population of interest, in this instance CD3+ T cells. T cells were stained with a 5 μM solution of Tag-it Violet™ dye (BioLegend) for 20 minutes protected from light. The stain was quenched by incubating the cells in cell culture medium containing 10% FBS (complete media). Stained cells were plated on tissue culture plates and sub-maximally activated with concanavalin A (con A) added to the culture medium. Cells were plated at 0.1×10^6 cells well. […] Cells were collected at 24, 48, and 72 hrs. Supernatants were collected at 24, 48, and 72 hrs and cytokine secretion was analyzed by flow cytometry using a LEGENDplex assay (BioLegend). In brief, following manufacturer's protocol, beads pre-coated with antibodies specific to various cytokines were incubated with cell supernatant. […] The beads were then stained and the captured cytokine composition assessed by flow cytometry."}, "[2]": {"tested_on": "NK cells", "experiment": "NK cell ADCC against trastuzumab-coated Her2 expressing target cells", "type": "cell-based, human", "conditions": "compared with NK cells pre-treated with beta adrenergic antagonist (nadolol or propranolol) prior to the agonist", "protocol": "Primary Natural Killer (NK) cells are isolated from human peripheral blood using a magnetic bead-based separation kit that negatively selects NK cells by sequestering other defined cell types (T, B, monocytes, etc.). Isolated NK cells are incubated with a target cell line, for example a Her2 expressing cancer cell line that has been pre-coated with trastuzumab, an anti-Her2 antibody, at a range of target-to-effector cell ratios. Following antibody-dependent cell cytotoxicity (ADCC)—antibody-mediated killing of the target cells by the NK cells, the number of surviving target cells is assessed by a fluorescent viability stain."}, "[3]": {"experiment": "Treatment of multiple sclerosis patient, MRI lesions", "type": "in vivo, human", "conditions": "MS patient; oral 5 mg/day; MRI 3-6 month after treatment initiation", "description": "A patient is diagnosed with multiple sclerosis (MS) by MRI criteria of >2 lesions. The patient is treated orally with propranolol at a dose regimen of 5 mg/day. An MRI scan is administered 3-6 month after treatment initiation. Further MRI scans are obtained at intervals of 6-12 months."}, "[4]": {"tested_on": "T cells in the lymph node", "experiment": "Lymph node remodeling by hock injection, flow cytometry of lymph node cells", "type": "in vivo, C57BL/6J mice", "conditions": "hock injection 48.5 nmol followed by quinpirole 0.1 nmol; 24 hours", "description": "24 hours after hock injection, brachial lymph nodes (LN) were harvested in culture medium (RPMI+10% FBS). LNs were transferred to 24-well tissue culture plates containing 0.5 mL LN digestion buffer (RPMI, 2% FBS, collagenase D (3.3 mg/mL), and DNAse I (40 ug/mL)). LN capsules were manually opened with two syringe (26G) needles and the LNs were incubated in digestion buffer for 15 minutes. Digested LNs were filtered with a 40 μM cell strainer and tissues were smashed with the plunger of a 5 mL syringe. Collected cells were washed in culture medium and plated for assays. Total number of viable cells were assessed by staining with viability dye eFluor 780 (eBioscience). Surface markers of various immune cell subsets were analyzed by staining the cells with antibodies for cell identity (CD3, CD4, CD8, CD19), for the inflammatory marker CD69, and the migratory marker CCR7. The cells were then assayed by flow cytometry."}, "[5]": {"tested_on": "macrophages", "experiment": "Macrophage activation and cytokine secretion assay (M1/M2 polarization)", "type": "cell-based, human", "protocol": "Peripheral blood mononuclear cells (PBMCs) were isolated from whole blood by ficoll density separation. Briefly, blood was diluted 1:2 with 0.5 mM EDTA solution in PBS, loaded onto a Ficoll-filled Leucosep tube (Greiner Bio-One), and centrifuged for 20 minutes at 1000×g. After centrifugation, the leukocyte/PBMC layer was collected and sequentially washed three times with 0.5 mM EDTA solution in PBS.\nMonocytes (CD14+) were isolated from PBMCs using magnetic bead-based separation following vendor specifications, e.g., Biolegend MojoSort Human CD14 Selection Kit protocol. In brief, PBMCs were labeled with biotinylated antibodies against cell surface receptors for cells not in the population of interest. The labeled cells are then captured by streptavidin-coated magnetic beads and removed by magnetic incubation. The uncaptured cells that flow through the magnetic separation are predominantly comprised of the population of interest, in this case CD14+ monocytes.\nMonocytes were differentiated into macrophages by culturing in DMEM complete medium containing 10% FBS for seven days in the presence of 40 ng/mL human M-CSF. Media was changed on day 1 and day 4. On Day 4, macrophages were polarized to various subtypes as follows: M0—incubated with 40 ng/mL M-CSF; M1—cultured with 40 ng/mL M-CSF, 20 ng/mL IFNγ, and 50 ng/mL LPS; M2—incubated with 40 ng/mL M-CSF, 20 ng/mL IL4, 20 ng/mL IL10, and 20 ng/mL TFGB. On day 7, cells were harvested by scraping them from the tissue culture plates and transferring them to 96-well plates.\nSupernatants were collected at 24, 48, and 72 hrs and cytokine secretion was analyzed by flow cytometry using a LEGENDplex assay (BioLegend). In brief, following manufacturer's protocol, beads that are pre-coated with antibodies specific to various cytokines were incubated with cell supernatant. […] The beads were then stained and the captured cytokine composition assessed by flow cytometry.\nM1 macrophage polarization is defined as increase in production of IL-12, TNF, IL-6, IL-8, IL-1B, MCP-1 and CCL2. Additionally, markers of M1 polarization that can be detected by RNA include Nos2. M2 polarization is defined as increase in IL-10 and/or a decrease in the M1 cytokines listed above. Additionally, markers of M2 polarization that can be detected by RNA include Arg1, IDO, PF4, CCL24, IL10, and IL4Ralpha."}, "[6]": {"conditions": "low sub-nanomolar concentrations, 72 hours post treatment"}, "[7]": {"conditions": "T cells from two different donors, 72 hours"}, "[8]": {"conditions": "T cells from two different donors, multiple time points"}}}
{"molecule": "NCCc1ccc(O)c(O)c1", "note": "[dopamine, Dopamine]", "values": [{"measurement": "T cell production of pro-survival cytokine IL-2", "setting": "[1]; 24 and 48 hours post-treatment, nanomolar concentrations", "result": "increase"}, {"measurement": "T cell production of pro-inflammatory cytokine IFNγ", "setting": "[1]; [6]", "result": "increase"}, {"measurement": "T cell production of pro-inflammatory cytokine IL-5", "setting": "[1]; [6]", "result": "increase"}, {"measurement": "T cell production of pro-inflammatory cytokine IL-6", "setting": "[1]; [6]", "result": "increase"}, {"measurement": "T cell production of pro-inflammatory cytokine IL-10", "setting": "[1]; [6]", "result": "increase"}, {"measurement": "T cell production of pro-inflammatory cytokine IL-13", "setting": "[1]; [6]", "result": "increase"}]}
{"molecule": "CC(C)NCC(O)c1cc(O)cc(O)c1", "note": "(centres unmarked) [metaproterenol]", "values": [{"measurement": "ADCC induced by treated NK cells", "setting": "[2]", "result": "significantly less ADCC"}]}
{"molecule": "CC(C)NCC(O)COc1cccc2ccccc12", "note": "(centres unmarked) [propranolol]", "values": [{"measurement": "Gadolinium (Gd)-enhancing T1 lesions and/or new or enlarging (active) T2 lesions", "setting": "[3]", "result": "decrease"}]}
{"molecule": "O=C(CCCN1CCC(O)(c2ccc(Cl)cc2)CC1)c1ccc(F)cc1", "note": "[haloperidol, Haloperidol]", "values": [{"measurement": "quinpirole-induced increase of CCR7+ T cells in the lymph node after pre-treatment with antagonist", "setting": "[4]", "result": "inhibited"}]}
{"molecule": "CC(C)NCC(O)c1ccc(O)c(O)c1", "note": "(centres unmarked) [isoproterenol]", "values": [{"measurement": "T cell production of pro-inflammatory cytokine IFNγ (FIG. 6A)", "setting": "[1]; [7]", "result": "decreased"}, {"measurement": "T cell production of pro-inflammatory cytokine IL-10 (FIG. 6C)", "setting": "[1]; [7]", "result": "decreased"}, {"measurement": "T cell production of pro-inflammatory cytokine TNFα (FIG. 6B)", "setting": "[1]; [7]", "result": "decreased"}, {"measurement": "T cell production of pro-inflammatory cytokine IFNγ", "setting": "[1]; [8]", "result": "decrease"}, {"measurement": "T cell production of pro-inflammatory cytokine IL-10", "setting": "[1]; [8]", "result": "decrease"}, {"measurement": "T cell production of pro-inflammatory cytokine TNFα", "setting": "[1]; [8]", "result": "decrease"}, {"measurement": "transcript of NOS2 in macrophages", "setting": "[5]; M1 marker", "result": "decrease"}, {"measurement": "transcript for Arg1 in macrophages", "setting": "[5]; M2 marker", "result": "increase"}, {"measurement": "transcript for IL-10 in macrophages", "setting": "[5]; M2 marker", "result": "increase"}, {"measurement": "macrophage polarization phenotype", "setting": "[5]; monocyte-derived macrophages, dilutions from 10 μM to 1 nM", "result": "polarized toward an M2 phenotype"}]}
{"molecule": "neuropeptide Y", "values": [{"measurement": "T cell production of cytokine IL-4", "setting": "[1]; sub-nanomolar concentrations, 48 hours post-treatment", "result": "increase"}]}
